# In patent US20200024278A1, “COMPOSITION COMPRISING ANTIBIOTIC COMPOUND AND AN HETEROCYCLIC COMPOUND AND THEIR USE IN PREVENTING OR TREATING BACTERIAL INFECTIONS” (MUTABILIS, priority 2016, published 2020):
# Like-named read-outs stand apart in the source and are kept apart here.
# Legend:
# Test in all cases: MIC, broth microdilution (CLSI), substance alone or ATB combined with compound at 4 or 8 μg/mL
# ECL P99 = format: cell-based, E. cloacae; settings: ECL P99; for MIC: Enterobacter cloacae
# How it was run: (§1)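 CLSI broth microdilution in cation-adjusted Mueller-Hinton broth, 5·10^5 CFU/mL log-phase inoculum, 16-20 h at 35 °C in ambient air. Fosfomycin assays supplemented with 25 μg/ml glucose-6-phosphate.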
# PAE 105250 = format: cell-based, P. aeruginosa; settings: PAE 105250
# How it was run: as §1
# PAE UFR48 = format: cell-based, P. aeruginosa; settings: PAE UFR48
# How it was run: as §1
# PAE UFR90 = format: cell-based, P. aeruginosa; settings: PAE UFR90
# How it was run: as §1
# SAU 29213 = format: cell-based, S. aureus; settings: SAU 29213
# How it was run: as §1
# SPN 49619 = format: cell-based, S. pneumoniae; settings: SPN 49619
# How it was run: as §1
structure (smiles),measurement,setting,value
"COCC1=C(C(=O)O)N2C(=O)[C@@H](NC(=O)/C(=N\OC)c3csc(N)n3)[C@H]2SC1 [POD, Cefpodoxime, reference compound]",MIC ATB combined with Example 11 @8 μg/ml,ECL P99; with Example 11 at 8 μg/ml,<0.031 mg/L
same,MIC ATB combined with Example 12 @8 μg/ml,ECL P99; with Example 12 at 8 μg/ml,<0.031 mg/L
same,MIC ATB combined with Example 13 @8 μg/ml,ECL P99; with Example 13 at 8 μg/ml,4 mg/L
same,MIC ATB combined with Example 14 @8 μg/ml,ECL P99; with Example 14 at 8 μg/ml,<0.031 mg/L
same,MIC ATB combined with Example 15 @4 μgml,ECL P99; with Example 15 at 4 μg/ml,<0.031 mg/L
same,MIC ATB combined with Example 16 @4 μg/ml,ECL P99; with Example 16 at 4 μg/ml,<0.031 mg/L
same,MIC,"ECL P99; antibiotic alone, read-out: MIC ATB alone",> 512 mg/L
same,MIC,"ECL P99; substance alone, read-out: MIC",> 512 mg/L
same,MIC ATB combined with Example 1 @8 μg/ml,PAE 105250; with Example 1 at 8 μg/ml,0.125 mg/L
same,MIC ATB combined with Example 7 @8 μgml,PAE 105250; with Example 7 at 8 μg/ml,>32 mg/L
same,MIC ATB combined with Example 9 @4 μg/ml,PAE 105250; with Example 9 at 4 μg/ml,>32 mg/L
same,MIC ATB combined with Example 11 @8 μg/ml,PAE 105250; with Example 11 at 8 μg/ml,>32 mg/L
same,MIC ATB combined with Example 12 @8 μg/ml,PAE 105250; with Example 12 at 8 μg/ml,>32 mg/L
same,MIC ATB combined with Example 13 @8 μg/ml,PAE 105250; with Example 13 at 8 μg/ml,>32 mg/L
same,MIC ATB combined with Example 14 @8 μg/ml,PAE 105250; with Example 14 at 8 μg/ml,>32 mg/L
same,MIC ATB combined with Example 15 @4 μgml,PAE 105250; with Example 15 at 4 μg/ml,>32 mg/L
same,MIC ATB combined with Example 16 @4 μg/ml,PAE 105250; with Example 16 at 4 μg/ml,>32 mg/L
same,MIC,"PAE 105250; Pseudomonas aeruginosa, antibiotic alone, read-out: MIC ATB alone",> 512 mg/L
same,MIC ATB combined with Example 1 @8 μg/ml,PAE UFR48; with Example 1 at 8 μg/ml,<0.031 mg/L
same,MIC ATB combined with Example 7 @8 μgml,PAE UFR48; with Example 7 at 8 μg/ml,>32 mg/L
same,MIC ATB combined with Example 9 @4 μg/ml,PAE UFR48; with Example 9 at 4 μg/ml,>32 mg/L
same,MIC ATB combined with Example 11 @8 μg/ml,PAE UFR48; with Example 11 at 8 μg/ml,>32 mg/L
same,MIC ATB combined with Example 12 @8 μg/ml,PAE UFR48; with Example 12 at 8 μg/ml,>32 mg/L
same,MIC ATB combined with Example 13 @8 μg/ml,PAE UFR48; with Example 13 at 8 μg/ml,>32 mg/L
same,MIC ATB combined with Example 14 @8 μg/ml,PAE UFR48; with Example 14 at 8 μg/ml,>32 mg/L
same,MIC ATB combined with Example 15 @4 μgml,PAE UFR48; with Example 15 at 4 μg/ml,>32 mg/L
same,MIC ATB combined with Example 16 @4 μg/ml,PAE UFR48; with Example 16 at 4 μg/ml,>32 mg/L
same,MIC ATB combined with Example 1 @8 μg/ml,PAE UFR90; with Example 1 at 8 μg/ml,<0.031 mg/L
same,MIC ATB combined with Example 7 @8 μgml,PAE UFR90; with Example 7 at 8 μg/ml,>32 mg/L
same,MIC ATB combined with Example 9 @4 μg/ml,PAE UFR90; with Example 9 at 4 μg/ml,>32 mg/L
same,MIC ATB combined with Example 11 @8 μg/ml,PAE UFR90; with Example 11 at 8 μg/ml,>32 mg/L
same,MIC ATB combined with Example 12 @8 μg/ml,PAE UFR90; with Example 12 at 8 μg/ml,>32 mg/L
same,MIC ATB combined with Example 13 @8 μg/ml,PAE UFR90; with Example 13 at 8 μg/ml,>32 mg/L
same,MIC ATB combined with Example 14 @8 μg/ml,PAE UFR90; with Example 14 at 8 μg/ml,>32 mg/L
same,MIC ATB combined with Example 15 @4 μgml,PAE UFR90; with Example 15 at 4 μg/ml,>32 mg/L
same,MIC ATB combined with Example 16 @4 μg/ml,PAE UFR90; with Example 16 at 4 μg/ml,>32 mg/L
same,MIC ATB combined with Example 1 @8 μg/ml,SAU 29213; with Example 1 at 8 μg/ml,4 mg/L
same,MIC ATB combined with Example 7 @8 μgml,SAU 29213; with Example 7 at 8 μg/ml,2 mg/L
same,MIC ATB combined with Example 9 @4 μg/ml,SAU 29213; with Example 9 at 4 μg/ml,<=0.031 μg/mL
same,MIC ATB combined with Example 11 @8 μg/ml,SAU 29213; with Example 11 at 8 μg/ml,<0.031 mg/L
same,MIC ATB combined with Example 12 @8 μg/ml,SAU 29213; with Example 12 at 8 μg/ml,<0.031 mg/L
same,MIC ATB combined with Example 13 @8 μg/ml,SAU 29213; with Example 13 at 8 μg/ml,2 mg/L
same,MIC ATB combined with Example 14 @8 μg/ml,SAU 29213; with Example 14 at 8 μg/ml,<0.031 mg/L
same,MIC ATB combined with Example 15 @4 μgml,SAU 29213; with Example 15 at 4 μg/ml,<0.031 mg/L
same,MIC ATB combined with Example 16 @4 μg/ml,SAU 29213; with Example 16 at 4 μg/ml,<0.031 mg/L
same,MIC,"SAU 29213; Staphylococcus aureus, antibiotic alone, read-out: MIC ATB alone",4 mg/L
same,MIC ATB combined with Example 1 @8 μg/ml,SPN 49619; with Example 1 at 8 μg/ml,0.063 mg/L
same,MIC ATB combined with Example 7 @8 μgml,SPN 49619; with Example 7 at 8 μg/ml,0.063 mg/L
same,MIC ATB combined with Example 9 @4 μg/ml,SPN 49619; with Example 9 at 4 μg/ml,<0.031 mg/L
same,MIC ATB combined with Example 11 @8 μg/ml,SPN 49619; with Example 11 at 8 μg/ml,<=0.031 μg/mL
same,MIC ATB combined with Example 12 @8 μg/ml,SPN 49619; with Example 12 at 8 μg/ml,<0.031 mg/L
same,MIC ATB combined with Example 13 @8 μg/ml,SPN 49619; with Example 13 at 8 μg/ml,0.063 mg/L
same,MIC ATB combined with Example 14 @8 μg/ml,SPN 49619; with Example 14 at 8 μg/ml,<0.031 mg/L
same,MIC ATB combined with Example 15 @4 μgml,SPN 49619; with Example 15 at 4 μg/ml,<=0.031 μg/mL
same,MIC ATB combined with Example 16 @4 μg/ml,SPN 49619; with Example 16 at 4 μg/ml,<0.031 mg/L
same,MIC,"SPN 49619; Streptococcus pneumoniae, antibiotic alone, read-out: MIC ATB alone",0.063 mg/L
